# Laboratory results from PubChem BioAssay AID328 (DTP/NCI, 2004).
# Values joined by “and” are separate entries in the source; they are usually repeats but may differ in a detail not shown here. Identical values can stand only once. Toxic doses and inconclusive results are not listed. Starred links: 1 amine or outer side, 2 acyl side, 3 side chain; linkers in the order of their positions; H or OH if unused. Positions of bridges follow the written chain, without caps; N, C: chain ends. Non-standard residues stand in square brackets, D forms with d. Residues, ends and D or L forms follow the SMILES beside them. Chains are numbered I, II in the order given. Actinocin(1to9) = Cc1c2oc3c(C)ccc(C(=O)[*:2])c3nc-2c(C(=O)[*:1])c(N)c1=O; X2 = CC(=O)OC1CC(C)N([*:1])C1C(=O)[*:2]; X1 = CC1CC(=O)C(C(=O)[*:2])N1[*:1]; NMeV = CN[CH](C(=O)O)C(C)C; NMeA = CN[CH](C)C(=O)O; Sar = CNCC(=O)O
# Test system: BDF1 mice, P388 leukemia ip, median survival T/C
# Assay: NCI In Vivo Anticancer Drug Screen. Data for tumor model P388 Leukemia (intraperitoneal) in B6D2F1 (BDF1) mice
# Settings: endpoint: median survival time, higher = longer survival
# In short: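 Mice carrying the transplantable tumour receive compound or vehicle. Survival is followed in each arm, and the treated measure is divided by the vehicle measure.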
# [1] = dose: 100.0 mg/kg/injection, schedule: Q01DX009 (ip), vehicle: Klucel (hydroxypropylcellulose) (HPC)
# [2] = dose: 200.0 mg/kg/injection, schedule: Q01DX009 (ip), vehicle: Klucel (hydroxypropylcellulose) (HPC)
# [3] = dose: 100.0 mg/kg/injection, schedule: Q04DX003 (ip), vehicle: saline with Tween-80
# [4] = dose: 200.0 mg/kg/injection, schedule: Q04DX003 (ip), vehicle: saline with Tween-80
# [5] = dose: 400.0 mg/kg/injection, schedule: Q04DX003 (ip), vehicle: saline with Tween-80
# [6] = dose: 25.0 mg/kg/injection, schedule: Q01DX009 (ip), vehicle: saline
# [7] = dose: 50.0 mg/kg/injection, schedule: Q01DX009 (ip), vehicle: saline
# [8] = dose: 100.0 mg/kg/injection, schedule: Q01DX009 (ip), vehicle: saline with Tween-80
# [9] = dose: 100.0 mg/kg/injection, schedule: Q04DX003 (ip), vehicle: saline
# [10] = dose: 200.0 mg/kg/injection, schedule: Q01DX009 (ip), vehicle: saline with Tween-80
# [11] = dose: 50.0 mg/kg/injection, schedule: Q01DX009 (ip), vehicle: saline with Tween-80
compound,measurement,setting,value
COC(=O)c1c(O)cc(OC)cc1OC,T/C,[1],111 % of control
same,T/C,"dose: 100.0 mg/kg/injection, schedule: Q04DX003 (ip), vehicle: Klucel (hydroxypropylcellulose) (HPC)",100 % of control
same,T/C,[2],100 % of control
same,T/C,"dose: 200.0 mg/kg/injection, schedule: Q04DX003 (ip), vehicle: Klucel (hydroxypropylcellulose) (HPC)",95 % of control
same,T/C,"dose: 400.0 mg/kg/injection, schedule: Q01DX009 (ip), vehicle: Klucel (hydroxypropylcellulose) (HPC)",100 % of control
same,T/C,"dose: 400.0 mg/kg/injection, schedule: Q04DX003 (ip), vehicle: Klucel (hydroxypropylcellulose) (HPC)",95 % of control
CCOC(=O)CCN(CCC(=O)OCC)C(C)C,T/C,[3],100 % of control
same,T/C,[4],100 % of control
same,T/C,[5],100 % of control
Cc1c[n+]2ccccc2n1C,T/C,[6],100 % of control
same,T/C,[7],104 % of control
CC(C)(O)/C=C/C(=O)C(C)(O)C1C(O)CC2(C)C3CC=C4C(CC(O)C(O)C4(C)C)C3(C)C(=O)CC12C (stereo not given),T/C,"dose: 0.25 mg/kg/injection, schedule: Q01DX010 (ip), vehicle: carboxymethylcellulose (CMC)",100 % of control
same,T/C,"dose: 0.5 mg/kg/injection, schedule: Q01DX010 (ip), vehicle: carboxymethylcellulose (CMC)",105 % of control
same,T/C,"dose: 1.0 mg/kg/injection, schedule: Q01DX010 (ip), vehicle: carboxymethylcellulose (CMC)",95 % of control
same,T/C,"dose: 2.0 mg/kg/injection, schedule: Q01DX010 (ip), vehicle: carboxymethylcellulose (CMC)",110 % of control
Clc1ccc(N=C/C=C\C=C/Nc2ccc(Cl)cc2)cc1,T/C,"dose: 20.0 mg/kg/injection, schedule: Q01DX009 (ip), vehicle: saline with Tween-80",91 % of control
"CC(=O)OC1CC(C)N2C(=O)C(C(C)C)NC(=O)C(NC(=O)c3ccc(C)c4oc5c(C)c(=O)c(N)c(C(=O)NC6C(=O)NC(C(C)C)C(=O)N7C(C)CC(=O)C7C(=O)N(C)CC(=O)N(C)C(C)C(=O)OC6C)c-5nc34)C(C)OC(=O)C(C(C)C)N(C)C(=O)CN(C)C(=O)C12 (stereo not given) (I: TV[X1][Sar][NMeA] / II: TV[X2][Sar][NMeV]; ester I:1-I:C, II:1-II:C; linker I:N-II:N via Actinocin(1to9); configuration not given here)",T/C,"dose: 0.05 mg/kg/injection, schedule: Q01DX009 (ip), vehicle: saline + alcohol",100 % of control
same,T/C,"dose: 0.1 mg/kg/injection, schedule: Q01DX009 (ip), vehicle: saline + alcohol",117 % of control
same,T/C,"dose: 0.15 mg/kg/injection, schedule: Q04DX003 (ip), vehicle: saline + alcohol",98 % of control
same,T/C,"dose: 0.3 mg/kg/injection, schedule: Q04DX003 (ip), vehicle: saline + alcohol",113 % of control
same,T/C,"dose: 0.4 mg/kg/injection, schedule: Q01DX009 (ip), vehicle: saline + alcohol",156 % of control
same,T/C,"dose: 0.8 mg/kg/injection, schedule: Q01DX009 (ip), vehicle: saline + alcohol",189 % of control
same,T/C,"dose: 1.2 mg/kg/injection, schedule: Q04DX003 (ip), vehicle: saline + alcohol",153 % of control
same,T/C,"dose: 2.4 mg/kg/injection, schedule: Q04DX003 (ip), vehicle: saline + alcohol",202 % of control
same,T/C,"dose: 6.4 mg/kg/injection, schedule: Q01DX001 (ip), vehicle: saline + alcohol",159 % of control
CC(=O)Nc1ccc(NNCc2ccccc2)c(N)c1,T/C,"dose: 100.0 mg/kg/injection, schedule: Q01DX001 (ip), vehicle: saline with Tween-80",97 % of control
same,T/C,"dose: 200.0 mg/kg/injection, schedule: Q01DX001 (ip), vehicle: saline with Tween-80",96 % of control
same,T/C,"dose: 400.0 mg/kg/injection, schedule: Q01DX001 (ip), vehicle: saline with Tween-80",91 % of control
CCCCCCCCCCC(=O)CCCCC,T/C,"dose: 100.0 mg/kg/injection, schedule: Q01DX009 (ip), vehicle: other",90 % of control
same,T/C,"dose: 200.0 mg/kg/injection, schedule: Q01DX009 (ip), vehicle: other",100 % of control
same,T/C,"dose: 400.0 mg/kg/injection, schedule: Q01DX009 (ip), vehicle: other",110 % of control
Nc1[nH]c(=S)[nH]c(=O)c1NC(=O)C1CC1,T/C,[8],100 % of control
same,T/C,[9],104 % of control
same,T/C,[10],100 % of control
same,T/C,"dose: 200.0 mg/kg/injection, schedule: Q04DX003 (ip), vehicle: saline",104 % of control
same,T/C,"dose: 400.0 mg/kg/injection, schedule: Q01DX009 (ip), vehicle: saline with Tween-80",100 % of control
same,T/C,"dose: 400.0 mg/kg/injection, schedule: Q04DX003 (ip), vehicle: saline",100 % of control
CC(=O)OCc1c(COC(C)=O)c(-c2ccc(Cl)c(Cl)c2)n2c1CCC2,T/C,"dose: 12.5 mg/kg/injection, schedule: Q01DX009 (ip), vehicle: Klucel (hydroxypropylcellulose) (HPC)",114 % of control
COc1ccc2c(c1)CCNC2CCO (stereo not given),T/C,"dose: 25.0 mg/kg/injection, schedule: Q04DX003 (ip), vehicle: saline",120 % of control
same,T/C,"dose: 50.0 mg/kg/injection, schedule: Q04DX003 (ip), vehicle: saline",110 % of control
same,T/C,[9],120 % of control
BrCCN(CCBr)c1cccc(/C=C/c2ccccc2)c1,T/C,"dose: 50.0 mg/kg/injection, schedule: Q01DX009 (ip), vehicle: Klucel (hydroxypropylcellulose) (HPC)",99 % of control
same,T/C,[1],101 % of control
same,T/C,[2],114 % of control
O=C(NS(=O)(=O)c1ccc(Cl)cc1)c1ccccc1,T/C,"dose: 12.5 mg/kg/injection, schedule: Q01DX009 (ip), vehicle: saline with Tween-80",99 % of control
same,T/C,"dose: 25.0 mg/kg/injection, schedule: Q01DX009 (ip), vehicle: saline with Tween-80",100 % of control and 109 % of control
same,T/C,[11],103 % of control and 120 % of control
same,T/C,[8],100 % of control
same,T/C,[10],90 % of control
COc1ccc2c(C(=O)CCC(=O)O)cccc2c1,T/C,"dose: 100.0 mg/kg/injection, schedule: Q01DX001 (ip), vehicle: saline",100 % of control
same,T/C,"dose: 200.0 mg/kg/injection, schedule: Q01DX001 (ip), vehicle: saline",100 % of control
same,T/C,"dose: 400.0 mg/kg/injection, schedule: Q01DX001 (ip), vehicle: saline",100 % of control
OC1CC2CCC(C1)N2CCCN1c2ccccc2Sc2ccc(Cl)cc21 (stereo not given),T/C,[6],104 % of control
same,T/C,[7],91 % of control
same,T/C,[9],90 % of control
COc1ccc(/C=C/c2ccc3ccccc3[n+]2C)c(OC)c1OC,T/C,"dose: 5.0 mg/kg/injection, schedule: Q01DX009 (ip), vehicle: Klucel (hydroxypropylcellulose) (HPC)",109 % of control
Cc1cccc(C(=O)/C=C/c2ccc(OCc3ccccc3)cc2)c1,T/C,[11],91 % of control
same,T/C,[8],91 % of control
same,T/C,[10],89 % of control
COc1cc2oc(=O)c3c(c2cc1OC)CCN(CCN1CCCCC1)C3,T/C,"dose: 50.0 mg/kg/injection, schedule: Q04DX002 (ip), vehicle: saline",101 % of control
same,T/C,"dose: 100.0 mg/kg/injection, schedule: Q04DX002 (ip), vehicle: saline",100 % of control
same,T/C,"dose: 200.0 mg/kg/injection, schedule: Q04DX002 (ip), vehicle: saline",108 % of control
C=CS(=O)(=O)Cc1ccccc1,T/C,"dose: 25.0 mg/kg/injection, schedule: Q04DX003 (ip), vehicle: saline with Tween-80",104 % of control
same,T/C,"dose: 50.0 mg/kg/injection, schedule: Q04DX003 (ip), vehicle: saline with Tween-80",93 % of control
COC1CC(N=[N+]=[N-])C(O)C(C)O1 (stereo not given),T/C,[3],118 % of control and 101 % of control
same,T/C,[4],110 % of control and 101 % of control
same,T/C,[5],118 % of control and 93 % of control
same,T/C,"dose: 500.0 mg/kg/injection, schedule: Q04DX003 (ip), vehicle: saline with Tween-80",109 % of control
COc1cc(/C=N/NC(=O)C(=O)Nc2cccc(Cl)c2)cc(OC)c1O,T/C,"dose: 50.0 mg/kg/injection, schedule: Q01DX005 (ip), vehicle: saline with Tween-80",91 % of control
same,T/C,"dose: 100.0 mg/kg/injection, schedule: Q01DX005 (ip), vehicle: saline with Tween-80",100 % of control
same,T/C,"dose: 200.0 mg/kg/injection, schedule: Q01DX005 (ip), vehicle: saline with Tween-80",100 % of control
O=C(CC(c1ccccc1)C1CCCN(c2ccccc2)S1(=O)=O)c1ccccc1 (stereo not given),T/C,[11],109 % of control
same,T/C,[8],114 % of control
same,T/C,[10],97 % of control
COc1ccc(-c2cc(=O)c3ccc4cc(OC)c(OC)cc4c3o2)cc1,T/C,"dose: 1.56 mg/kg/injection, schedule: Q01DX009 (ip), vehicle: distilled water + Tween-80",102 % of control
same,T/C,"dose: 3.13 mg/kg/injection, schedule: Q01DX009 (ip), vehicle: distilled water + Tween-80",86 % of control
same,T/C,"dose: 6.25 mg/kg/injection, schedule: Q01DX009 (ip), vehicle: distilled water + Tween-80",87 % of control
same,T/C,"dose: 12.5 mg/kg/injection, schedule: Q01DX009 (ip), vehicle: distilled water + Tween-80",89 % of control
Cn1c(=O)c2c(c3ccccc31)Oc1oc3ccc4ccccc4c3c(=O)c1C2,T/C,[11],91 % of control
same,T/C,[10],94 % of control
